Results on five compounds are retold here after patent US5008291A, “Method and composition for achieving chemotherapeutic activity” (Ohio State University Research Foundation, priority 1989, dated 1991).

Entries after “also recorded” stand apart in the source; their conditions may differ.

One series relates to beta-glucuronidase. The conditions noted are these: cells, blood, urine, intestine (and liver); cited from earlier work.
The subject of series [1] is DMBA-induced mammary tumors. In words: DMBA-induced mammary tumor formation (chemoprevention), Example I. The class given is in vivo, female Sprague Dawley rats. The conditions noted are these: for No. of Rats with Tumors / Total No. Tumors: 20 rats. On the procedure: They were maintained on the diets for approximately 4 mos., and were examined (palpated) for mammary tumors weekly. […] The retinoid (HPR) was first dissolved in 25 ml of a vehicle consisting of ethanol-tricaprylin-6% α-tocopherol, then thoroughly mixed with powdered rat chow.

The test system of series [2] is established DMBA-induced mammary tumors. In words: Growth of established DMBA-induced rat mammary tumors, Example II. The class given is in vivo, female Sprague Dawley rats. Particulars: for increase of tumor size / decrease of mammary tumor size: 25 days; for increase of tumor size: controls 98%; for tumor growth: diets supplemented with low ineffective doses; for effect on tumor growth/development when fed separately: low (ineffective) dosages fed separately. On the procedure:
Louis, Mo.) in 1.0 ml of sesame oil, Abou-Issa et al., Proc. Natl. Acad. Sci. U.S.A., supra. […] Tumor sizes were measured in all the rats just before placing them on the following experimental diets (Groups I-VI): (I) rat chow (RMH 3200, Pro Lab, Syracuse, N.Y.); […] Natl. Acad. Sci. U.S.A., supra. The latter vehicle was added to the diet of all six groups. The additives were blended into the diet with a mechanical mixer. All the tumors that developed within the time frame of this example are histologically adenocarcinomas. This finding has been previously reported by Huggins et al., Mammary cancer induced by a single feeding of polynuclear hydrocarbons, and its suppression, Nature, 185:204-207 (1961), in this animal model under the same conditions, and has been confirmed in several indentical experiments. At later time periods beyond the time frame of this example fibroadenomas usually develop, Welsch et al., In "Cellular and Molecular Biology of Mammary Cancer", ([…] and E. Anderson, eds.) Plenum Press, N.Y. 1987, pp 163-179. Tumor measurements were began at the time the rats were placed on the experimental diets and were continued twice weekly throughout the duration of the experiment. Two axes were measured - the longest axis (L) and the axis at right angles to the longest (W), using a vernier caliper. […] Weights of the rats on the control and experimental diets were recorded weekly.

A short description of series [3]: Body weight of rats, Example II. The class given is in vivo, female Sprague Dawley rats. The conditions noted are these: for Final Weight: end of experiment; for Initial Weight: just before treatment. On the procedure:
Rat mammary tumors were induced by treating one hundred 50 day old female Sprague Dawley rats (Harlan Industries, Indianapolis, Ind.) by gavage with a single dose of 15 mg of 7,12-dimethylbenz(a)anthracene (Sigma Chemical Co., St. Louis, Mo.) in 1.0 ml of sesame oil, Abou-Issa et al., Proc. Natl. Acad. Sci. U.S.A., supra. The rats were maintained on a chow diet ad libitum until the tumors had formed in 70% of the rats and had reached a size of approximately 2.0 cm in diameter; 4 months later at which time they were randomized into six groups of 10 rats each. […] The latter vehicle was added to the diet of all six groups. The additives were blended into the diet with a mechanical mixer.
Tumor regression is indicated by at least 20% reduction in tumor size and each tumor is compared to its initial size on day zero. Weights of the rats on the control and experimental diets were recorded weekly.

In the next series the test system is Estrogen Receptors. In words: Estrogen receptors of established DMBA-induced mammary tumors. The class given is in vivo, female Sprague Dawley rats. Particulars: N 7.
The subject of a further series is Progesterone Receptors. In words: Progesterone receptors of established DMBA-induced mammary tumors. The class given is in vivo, female Sprague Dawley rats. The conditions noted are these: N 7.
The nature of series [4]: Body weight gain of rats, Example I (FIG. 4). The class given is in vivo, female Sprague Dawley rats. Particulars: prolonged feeding of diets containing CGT and HPR.
The subject of series [5] is 7,12-dimethylbenz(a)anthracene-induced mammary tumorigenesis. Particulars: cited from earlier work.
In another series the test system is chemical carcinogenesis. Particulars: sustained release dietary form; liver, lung, skin, mammary gland; cited from earlier work.
The next series has as its system sex hormones. Particulars: CGT diet; anti-promotional effect; cited from earlier work.
The conditions of series [6]: as calcium glucarate; cited from earlier work.
The conditions of series [7]: CGT-supplemented diet; cited from earlier work.
For a further series, the system named is MCF-7 cells. The experiment in a line: Growth of MCF-7 cells (GL, HPR, GL and HPR), Table II. Particulars: 5 days; for No. of viable cells: mean ± SE of three experiments. The class given is cell-based, human.
Series [8] relates to established DMBA-induced mammary tumors. The experiment in a line: HPR on already established DMBA-induced mammary tumors. The class given is in vivo, female Sprague Dawley rats. On the procedure: When higher doses (2 mmol/kg diet) of HPR were used, growth arrest was followed within 5 to 10 days by 30% regression of the DMBA-induced mammary tumors. Also, HPR (0.1 uM) inhibited the […] growth of the human breast cancer cell line (MCF-7) to 50% of the control within 7 days.

For series [9], the system named is established mammary tumors. In words: HPR on established mammary tumors in CD8 F1 mice. The class given is in vivo. The conditions noted are these: CD8 F1 mice with established mammary tumors.
For series [10] the following is noted: rat, in vivo; cited from earlier work.

Experimental for Estrogen Receptors: (§1) Estrogen and progesterone receptors were measured in the OSU Hormone Receptor Laboratory by the multipoint dextran-coated charcoal method as previously described in Schuller et al., Estrogen and progesterone receptors in head and neck cancer, Arch. […] The data of specific binding were analyzed by Scatchard, The Attraction of proteins for small molecules and ions, Ann. N.Y. Acad. Sci. 51:660-672 (1949), plots to determine the equilibrium dissociation constant (Kd) and binding capacity expressed as femtomoles of estradiol or progesterone (R-5020) specifically bound per mg of cytosol protein for estrogen and progesterone receptors respectively. Cytosol protein concentrations were determined by the procedure of Lowry et al., Protein measurement with the folin phenol reagent, J. Biol. Chem. 193:265-275 (1951).
Text for MCF-7 cells: The values shown are the mean +/- ISE for three experiments counted in triplicates. The numbers in parenthesis indicate the number of free floating (mostly non viable) cells in the media.
Experimental for Progesterone Receptors: as §1

In the case of “2,4-di-O-acetyl-D-glucaro-1,4-lactone [reference compound]”, the inhibition of beta-glucuronidase result in the series with beta-glucuronidase is “effective as inhibitors of beta-glucuronidase”.
As for `O=C([O-])[C@@H](O)[C@@H](O)[C@H](O)[C@@H](O)C(=O)[O-].[Ca+2]` [CGT, calcium glucarate], in [1] (1% CGT in diet), the “Tumor Incidence” value is reported as 55, the “Tumors Per Rat” value came to 1.0, the “No. of Rats with Tumors” value is 11 and the “Total No. Tumors” value came to 20. For the same compound, in series [1] (2% CGT in diet), the “Tumor Incidence” value turned out to be 55, the “Tumors Per Rat” value was found to be 1.0, the “No. of Rats with Tumors” value is given as 11 and the “Total No. Tumors” value was found to be 20. Besides, in [1] (4% CGT in diet), the “Tumor Incidence” value is listed as 35, the “Tumors Per Rat” value was 0.5, the “No. of Rats with Tumors” value is on record as 7 and the “Total No. Tumors” value came out at 10. In addition, in series [1] (CGT (4%)), the “inhibition of tumor incidence” value is 50-60% and the inhibition of tumors/rat is reported as 50-65%. Also, the “minimum dosage used alone consistent with maximum inhibition of carcinogenesis” value in [1] (CGT alone, 4 gm/100 gm of chow diet) is recorded as around 4 gm %. Besides, the “increase of tumor size” value in [2] (CGT 64 mmol/kg) is given as 55%. Besides, in series [2] (CGT 128 mmol/kg), the “decrease of mammary tumor size” value was determined as 25%. In addition, in series [2], the tumor growth entry is “continued to grow”; the “effect on tumor growth/development when fed separately” value is “enhanced tumor growth; also recorded: no observable inhibitory effect and indeed enhanced tumor development”. Moreover, in [3] (CGT (2%)), the “Final Weight” value is given as 415 +/- 15 gm and the “Initial Weight” value is recorded as 401 +/- 10 gm. In series [3] (CGT (4%)), the “Final Weight” value is 429 +/- 26 gm and the “Initial Weight” value is 404 +/- 22 gm. The “Estrogen Receptors” value with Estrogen Receptors (CGT (2%)) is recorded as 42.7 +/- 7.0 Fmoles/mg Protein. The “Estrogen Receptors” value in the series on Estrogen Receptors (CGT (4%)) is on record as 44.3 +/- 5.9 Fmoles/mg Protein. Further, the “Progesterone Receptors” value with Progesterone Receptors (CGT (2%)) is on record as 84.4 +/- 17.0 Fmoles/mg Protein. The “Progesterone Receptors” value with Progesterone Receptors (CGT (4%)) was 82.0 +/- 16.0 Fmoles/mg Protein. The “effect on weight gain” value in series [4] is “did not affect weight gain”. Further, the “tumor induction relative to controls” value in series [5] (4% CGT diet from two weeks after carcinogen, by 28 weeks) was 30 % of that in the controls. Besides, the regression of tumors result in series [5] (chow diet supplemented with CGT, some tumors) is listed as “underwent regression”. The inhibition of beta-glucuronidase entry in the series on beta-glucuronidase is on record as “effective as inhibitors of beta-glucuronidase”. The chemopreventive activity result in the series with chemical carcinogenesis is “potent chemopreventative agent”. The “steady-state level of sex hormones” value with sex hormones is given as “reduction in the steady-state level of sex hormones”. In series [6], the “dietary dosage that is non-toxic” value was “up to 10 % in the diet”. Besides, the “food quantity and weight gain” value in [7] is on record as “identical to those on the normal chow diet”.
As to `O=C(O)[C@@H](O)[C@H]1OC(=O)[C@H](O)[C@H]1O` [GL, D-glucaro-1,4-lactone], in the series on MCF-7 cells (GL (10^-3 M)), the “free floating (mostly non viable) cells, % of control” value was 7 % of control; the “number of free floating (mostly non viable) cells” value worked out at 4560; the “No. of viable cells” value is 32560 ± 1800. Also, in the series on MCF-7 cells (GL (10^-4 M)), the “free floating (mostly non viable) cells, % of control” value is 6 % of control; the “number of free floating (mostly non viable) cells” value was 3440; the “No. of viable cells” value is recorded as 49480 + 3160. The inhibition of beta-glucuronidase entry in the series with beta-glucuronidase is recorded as “potent inhibitor of beta-glucuronidase”.
As for `CC1=C(/C=C/C(C)=C/C=C/C(C)=C/C(=O)Nc2ccc(O)cc2)C(C)(C)CCC1` [HPR, N-(4-hydroxyphenyl) retinamide], in series [1] (0.75 mmol/kg diet HPR), the “Tumor Incidence” value is on record as 60, the “Tumors Per Rat” value was found to be 1.0, the “No. of Rats with Tumors” value is on record as 12 and the “Total No. Tumors” value is listed as 20. Further, in series [1] (HPR (1.5 mmol)), the “inhibition of tumor incidence” value was 50-60% and the inhibition of tumors/rat is recorded as 50-65%. The “minimum dosage used alone consistent with maximum inhibition of carcinogenesis” value in [1] (HPR alone, in diet) lay within 1.0 to 1.5 mmol/kg. For the same compound, the “increase of tumor size” value in series [2] (HPR 0.75 mmol/kg) turned out to be 70%. The “decrease of mammary tumor size” value in series [2] (HPR 2 mmol/kg) came out at 15%. In series [2], the tumor growth result is recorded as “continued to grow”; the “effect on tumor growth/development when fed separately” value is “no observable inhibitory effect and indeed enhanced tumor development”. For the same compound, in the series on MCF-7 cells (HPR (5 × 10^-8 M)), the “free floating (mostly non viable) cells, % of control” value is given as 7 % of control; the “number of free floating (mostly non viable) cells” value is listed as 4160; the “No. of viable cells” value was determined as 33680 ± 2627. Besides, the “inhibition of tumor growth” value in [8] (1.0 mmol/kg diet daily, within 10 days) is reported as 80-90%. In addition, the tumor growth result in series [8] (2 mmol/kg diet) is recorded as “growth arrest”. In addition, the “regression of DMBA-induced mammary tumors” value in [8] (2 mmol/kg diet, within 5 to 10 days after growth arrest) stood at 30%. Moreover, the “inhibition of tumor growth” value in [9] was found to be 50%. For the same compound, in series [3] (HPR (0.75 mmol/kg)), the “Final Weight” value is 421 +/- 14 gm and the “Initial Weight” value is listed as 409 +/- 18 gm. Further, in series [3] (HPR (2.0 mmol/kg)), the “Final Weight” value is reported as 413 +/- 10 gm and the “Initial Weight” value is recorded as 401 +/- 13 gm. Moreover, in the series on Estrogen Receptors (HPR (2.0 mmol/kg)), the “Estrogen Receptors” value was 50.6 +/- 8.4 Fmoles/mg Protein. In addition, the “Progesterone Receptors” value in the series on Progesterone Receptors (HPR (0.75 mmol/kg)) was 90.7 +/- 18.0 Fmoles/mg Protein. Further, the “Progesterone Receptors” value with Progesterone Receptors (HPR (2.0 mmol/kg)) is given as 89.3 +/- 13.7 Fmoles/mg Protein. In addition, the “effect on weight gain” value in series [4] is on record as “did not affect weight gain”. Besides, the tissue trophism result in [10] is reported as “displays trophism for the mammary gland”.
Regarding `O=C(O)[C@@H](O)[C@@H](O)[C@H](O)[C@@H](O)C(=O)[O-].[K+]` [potassium hydrogen glucarate, reference compound], the inhibition of beta-glucuronidase result in the series on beta-glucuronidase is given as “effective as inhibitors of beta-glucuronidase”.
